Results as given in patent US9107415B2, “2-(substituted-phenyl)-cyclopentane-1,3-dione compounds, and derivatives thereof” (Syngenta Limited, priority 2011, dated 2015).

What was measured:
Type in all cases: in vivo
[1] = system: Echinochloa crus-galli (ECHCG); assay: Biological Example 1 glasshouse screen, post-emergence herbicidal activity; settings: 312 h, application rate 250 g/ha, evaluated after 13 days, read-out: ECHCG percentage phytotoxicity
Procedure: (§1) Seeds of a variety of test species were sown in standard soil in pots. After cultivation for one day (pre-emergence) or after 8 days cultivation (post-emergence) under controlled conditions in a glasshouse (at 24/16°C., day/night; 14 hours light; 65% humidity), the plants were sprayed with an aqueous spray solution derived from the formulation of the “technical”(i.e. unformulated) active ingredient in acetone/water (50:50) solution containing 0.5% Tween 20 (polyoxyethylene sorbitan monolaurate, CAS Registry Number 9005-64-5). The test plants were then grown in a glasshouse under controlled conditions in a glasshouse (at 24/16°C., day/night; 14 hours light; 65% humidity) and watered twice daily. After 13 days for pre- or post-emergence, the test was evaluated visually, and an assessed percentage phytotoxicity score given for each herbicidal application on each plant/weed species (with 100%=total damage to plant; 0%=no damage to plant).
(§2) Test plants: Alopecurus myosuroides (ALOMY), Setaria faberi (SETFA), Echinochloa crus-galli (ECHCG), Solanum nigrum (SOLNI), Amaranthus retroflexus (AMARE) and Ipomoea hederacea (IPOHE). ALOMY, SETFA and ECHCG are grassy monocotyledonous weeds. SOLNI, AMARE and IPOHE are dicotyledonous (broadleaved) weeds.
(§3) Test plants: Lolium perenne (LOLPE), Alopecurus myosuroides (ALOMY), Echinochloa crus-galli (ECHCG), and Avena fatua (AVEFA). All four of these are grassy monocotyledonous weeds.

[2] = system: Alopecurus myosuroides (ALOMY); assay: as above; settings: 312 h, application rate 250 g/ha, evaluated after 13 days, read-out: ALOMY percentage phytotoxicity
Procedure: as §1, §2, §3

[3] = system: Avena fatua (AVEFA); assay: Biological Example 1 glasshouse screen, pre-emergence herbicidal activity; settings: 312 h, application rate 250 g/ha, evaluated after 13 days, read-out: AVEFA percentage phytotoxicity
Procedure: as §1, §3

[4] = system: Lolium perenne (LOLPE); assay: as above; settings: 312 h, application rate 250 g/ha, evaluated after 13 days, read-out: LOLPE percentage phytotoxicity
Procedure: as §1, §3

[5] = system: Echinochloa crus-galli (ECHCG); assay: as above; settings: 312 h, application rate 250 g/ha, evaluated after 13 days, read-out: ECHCG percentage phytotoxicity
Procedure: as §1, §2, §3

[6] = system: Alopecurus myosuroides (ALOMY); assay: as above; settings: 312 h, application rate 250 g/ha, evaluated after 13 days, read-out: ALOMY percentage phytotoxicity
Procedure: as §1, §2, §3

[7] = system: Avena fatua (AVEFA); assay: Biological Example 1 glasshouse screen, post-emergence herbicidal activity; settings: 312 h, application rate 250 g/ha, evaluated after 13 days, read-out: AVEFA percentage phytotoxicity
Procedure: as §1, §3

[8] = system: Lolium perenne (LOLPE); assay: as above; settings: 312 h, application rate 250 g/ha, evaluated after 13 days, read-out: LOLPE percentage phytotoxicity
Procedure: as §1, §3

[9] = system: Triticum aestivum, wheat (TRZAW); assay: Biological Example 3 glasshouse screen, post-emergence, phytotoxicity on wheat; settings: 360 h, application rate 30 g/ha, 15 DAA, no safener, read-out: TRZAW percentage phytotoxicity
Procedure: (§4) Test Method: Seeds of a variety of test species are sown in standard soil in pots. After cultivation for one day (pre-emergence) or after 12 days cultivation (post-emergence) under controlled conditions in a glasshouse (warm climate species at 24/18°C., cool climate species at 20/16°C., both at day/night; 16 hours light; 65% humidity), the plants are sprayed with an aqueous spray solution derived from the formulation of the “technical”(i.e. unformulated) active ingredient dissolved in acetone plus IF50, at a 1:20 ratio of “technical”active ingredient to IF50. The IF50 contains about 10.56 weight % Emulsogen EL™(castor oil ethoxylate, CAS Registry number 61791-12-6), about 42.22 weight % N-methylpyrrolidone, and about 42.22 weight % DPG-Monoethyl ether (dipropylene glycol mono-ethyl ether). The adjuvant X-77 (a mixture of alkyl aryl polyoxyethylene glycols and free fatty acids in isopropanol, CAS Registry number 11097-66-8) is added to the aqueous spray solution to form a 0.2% v/v solution, before spraying onto the plants.
(§5) The test plants are then grown in a glasshouse under controlled conditions in a glasshouse (at 24/18°C. or 20/16°C., day/night; 16 hours light; 65% humidity) and watered twice daily. After 15 days after application of the herbicide (15 DAA) (for post-emergence), and after 20 DAA (for pre-emergence), the test is evaluated visually, and an assessed percentage phytotoxicity score is given for each herbicidal application on each plant/weed species (with 100%=total damage to plant; 0%=no damage to plant).
These give an approximate indication of the level of selectivity on wheat for these tested compounds, when a herbicide safener such as cloquintocet-mexyl is not used: […]

[10] = system: Avena fatua, wild oats (AVEFA); assay: Biological Example 3 glasshouse screen, post-emergence herbicidal activity; settings: 360 h, application rate 30 g/ha, 15 DAA, no safener, read-out: AVEFA percentage phytotoxicity
Procedure: as §4
as §5, with “plant). […]” for “plant).”

[11] = system: Lolium perenne, perennial ryegrass (LOLPE); assay: as above; settings: 360 h, application rate 30 g/ha, 15 DAA, no safener, read-out: LOLPE percentage phytotoxicity
Procedure: as §4
as §5, with “plant). […]” for “plant).”

[12] = system: Echinochloa crus galli, barnyardgrass (ECHCG); assay: as above; settings: 360 h, application rate 30 g/ha, 15 DAA, no safener, read-out: ECHCG percentage phytotoxicity
Procedure: as §4
as §5, with “plant). […]” for “plant).”

[13] = system: Alopecurus myosuroides, blackgrass (ALOMY); assay: as above; settings: 360 h, application rate 30 g/ha, 15 DAA, no safener, read-out: ALOMY percentage phytotoxicity
Procedure: as §4
as §5, with “plant). […]” for “plant).”

Work on `CC#Cc1cc(C)c(C2C(=O)CC(Cc3ccn[nH]3)C2=O)c(C)c1` (stereo not shown) [Compound A-24] yielded a pest or weed control at 250 g/ha [1] of 100%, a pest or weed control at 250 g/ha [2] of 100% and a pest or weed control at 250 g/ha [3] of 80%. The pest or weed control at 250 g/ha [4] was 100%, the pest or weed control at 250 g/ha [5] was 100% and the pest or weed control at 250 g/ha [6] was 100%. For the same molecule, the pest or weed control at 250 g/ha [7] was 100% and the pest or weed control at 250 g/ha [8] was 100%.

Molecule `C#CCC1CC(=O)C(c2c(C)cc(C#CCl)cc2C)C1=O` (stereo not shown) [Compound A-25] has a pest or weed control at 250 g/ha [1] of 100%, a pest or weed control at 250 g/ha [2] of 90% and a pest or weed control at 250 g/ha [3] of 70%. For the same molecule, the pest or weed control at 250 g/ha [4] was 100%, the pest or weed control at 250 g/ha [5] was 100% and the pest or weed control at 250 g/ha [6] was 90%. For the same molecule, the pest or weed control at 250 g/ha [7] was 100% and the pest or weed control at 250 g/ha [8] was 100%.

`CC#Cc1cc(C)c(C2C(=O)CC(Cc3ccc(C#N)cn3)C2=O)c(CC)c1` (stereo not shown) [Compound A-27] gave a pest or weed control at 250 g/ha [1] of 100%, a pest or weed control at 250 g/ha [2] of 70% and a pest or weed control at 250 g/ha [3] of 90%. It also gave a pest or weed control at 250 g/ha [4] of 100%, a pest or weed control at 250 g/ha [5] of 100% and a pest or weed control at 250 g/ha [6] of 90%. For the same molecule, the pest or weed control at 250 g/ha [7] was 100% and the pest or weed control at 250 g/ha [8] was 90%.

Work on `CC#Cc1cc(C)c(C2C(=O)CC(Cc3ccc(C#N)cc3)C2=O)c(C)c1` (stereo not shown) [Compound A-28] yielded a pest or weed control at 250 g/ha [1] of 100%, a pest or weed control at 250 g/ha [2] of 90% and a pest or weed control at 250 g/ha [3] of 70%. The pest or weed control at 250 g/ha [4] was 90%, the pest or weed control at 250 g/ha [5] was 100% and the pest or weed control at 250 g/ha [6] was 70%. The pest or weed control at 250 g/ha [7] was 80% and the pest or weed control at 250 g/ha [8] was 90%.

`CC#Cc1cc(C)c(C2C(=O)CC(Cc3ccccc3C#N)C2=O)c(C)c1` (stereo not shown) [Compound A-29] showed a pest or weed control at 250 g/ha [1] of 100%, a pest or weed control at 250 g/ha [2] of 100% and a pest or weed control at 250 g/ha [3] of 100%. The pest or weed control at 250 g/ha [4] was 50%, the pest or weed control at 250 g/ha [5] was 80% and the pest or weed control at 250 g/ha [6] was 50%. The pest or weed control at 250 g/ha [7] was 80% and the pest or weed control at 250 g/ha [8] was 100%.

For `Cc1cc(-c2ccc(F)cc2)cc(C)c1C1C(=O)CC(Cc2ccccn2)C1=O` (stereo not shown) [Compound T71, from WO 2010/069834, reference compound], the pest or weed control at 30 g/ha [9] was 80%, the pest or weed control at 30 g/ha [10] was 100% and the pest or weed control at 30 g/ha [11] was 90%. It also gave a pest or weed control at 30 g/ha [12] of 100% and a pest or weed control at 30 g/ha [13] of 100%.

With `Cc1cc(-c2ccc(F)c(Cl)c2)cc(C)c1C1C(=O)CC(Cc2ccccn2)C1=O` (stereo not shown) [reference compound] the pest or weed control at 30 g/ha [9] was 70%, the pest or weed control at 30 g/ha [10] was 90% and the pest or weed control at 30 g/ha [11] was 70%. For the same molecule, the pest or weed control at 30 g/ha [12] was 90% and the pest or weed control at 30 g/ha [13] was 100%.

`Cc1cc(-c2ccc(F)cc2)cc(C)c1C1C(=O)CC(Cc2ccc(C#N)cn2)C1=O` (stereo not shown) [reference compound] showed a pest or weed control at 30 g/ha [9] of 50%, a pest or weed control at 30 g/ha [10] of 30% and a pest or weed control at 30 g/ha [11] of 10%. For the same molecule, the pest or weed control at 30 g/ha [12] was 100% and the pest or weed control at 30 g/ha [13] was 70%.
